Experiments:
M. extorquens = assay: Illumina-based transcriptome analysis (RNA-seq) of cells grown with and without REE; assay type: cell-based; conditions: La^3+ vs without REE
Description: To identify mechanisms by which M. extorquens can sense and acquire REE, as well as to support REE-dependent methanol growth, Illumina-based transcriptome analyses (RNA-seq) was performed. Comparison of cells grown in liquid culture with and without REE addition allowed us to identify changes that may be relevant in planta.
It is intriguing to speculate that the reason why Fdh4 activity has never been detected is because it may require REEs. Frc12 and Oxr are enzymes of the oxalyl-CoA pathway (OXC). This pathway is known to produce glyoxylate when M. extorquens is grown with oxalate as a carbon source.

[1] = system: M. extorquens mxaF mutant strain; assay: REE/La^3+-dependent methanol growth of mxaF mutant strain; assay type: cell-based
Source text: FIGS. 5A-5B show REE-dependent methylotrophy.
There is a direct link between REEs commonly used in fertilizers, such as La, Ce^3+, Pr^3+, and Nd^3+, and growth of M. extorquens using methanol as carbon source (FIG. 5A). […] Alternatively, it is possible that the remaining lanthanides are not transported into the cell. Detailed biochemical analyses are required to distinguish between these two possibilities.
The concentrations of exogenous La^3+ that would support La^3+-dependent methanol growth were assessed using methanol medium supplemented with La^3+ concentrations ranging from 0-20 μM (FIG. 5B). The mxaF mutant strain was used to eliminate any contribution by the Ca^2+-dependent methanol dehydrogenase MxaFI.

[La+3] [La^3+, lanthanum]
Upregulation of Zn-containing alcohol dehydrogenase Zn-ADH (M. extorquens): 4.8 fold
Upregulation of an ABC transporter (M. extorquens): 6.3 fold
Upregulation of formate dehydrogenase Fdh4 (M. extorquens): 4 fold
Upregulation of formyl-CoA transferase Frc12 (M. extorquens): 3 fold
Upregulation of oxalyl-CoA (Oxr) (M. extorquens): 2.5 fold
Upregulation of putative alcohol dehydrogenase quinoprotein ExaF (M. extorquens): 3.4 fold
Upregulation of the PQQ synthesis pathway (M. extorquens): 10 fold
Upregulation of methanol dehydrogenase genes XoxF1 and XoxF2 (M. extorquens; methanol growth): 10 fold
Final OD600 ([1]; 1 μM La^3+): 1.6
La^3+ concentration resulting in maximal growth rate ([1]; methanol medium): 1 µM
Lowest La^3+ concentration at which La^3+-dependent methanol growth was observed ([1]; poor growth): 2.5 nM
